Where only a bound is given, the exact number is not on record here.

Experimental findings from patent US20230081390A1, “INHIBITORS OF RAF KINASES” (Kinnate Biopharma Inc., priority 2019, published 2023) are described below.

human RAF1, sequence (P04049 whole entry): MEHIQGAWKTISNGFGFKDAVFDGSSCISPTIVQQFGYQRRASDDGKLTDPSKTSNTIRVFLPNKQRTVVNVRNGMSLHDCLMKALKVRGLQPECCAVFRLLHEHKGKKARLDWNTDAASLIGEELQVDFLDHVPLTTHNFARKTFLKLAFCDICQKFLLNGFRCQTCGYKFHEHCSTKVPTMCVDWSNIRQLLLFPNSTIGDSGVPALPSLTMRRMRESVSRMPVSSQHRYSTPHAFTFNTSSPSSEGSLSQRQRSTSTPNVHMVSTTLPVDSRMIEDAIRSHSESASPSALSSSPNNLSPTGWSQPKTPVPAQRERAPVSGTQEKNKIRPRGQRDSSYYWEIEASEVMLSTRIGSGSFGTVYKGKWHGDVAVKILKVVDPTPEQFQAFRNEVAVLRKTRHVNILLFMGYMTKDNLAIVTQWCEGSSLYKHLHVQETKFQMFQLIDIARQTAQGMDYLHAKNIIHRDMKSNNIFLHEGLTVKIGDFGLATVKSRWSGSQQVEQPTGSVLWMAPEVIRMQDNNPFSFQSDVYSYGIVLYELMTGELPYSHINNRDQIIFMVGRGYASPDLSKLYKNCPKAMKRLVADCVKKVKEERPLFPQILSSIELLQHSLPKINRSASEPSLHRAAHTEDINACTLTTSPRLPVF

The experiment addresses human RAF1 (Homo sapiens, UniProt P04049). As to the kind of experiment: Protein kinase assay (33P-ATP filter binding), human RAF1, 10-dose IC50. The conditions noted are these: MEK1 (K97R) substrate 3 micromolar, ATP 10 micromolar, read-out: RAF-1 IC50. In kind it is biochemical. In outline: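 Human RAF1 phosphorylated human MEK1 (K97R) substrate at 3 µM with 10 µM ATP (³³P), in pH 7.5 HEPES buffer with MgCl2, EGTA, Brij35, BSA, Na3VO4 and DTT. Reactions ran for 2 hr at room temperature with P81 filter capture.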
For `Cc1cc(F)c(NC(=O)N2C[C@@H](N)C[C@@H](C(F)(F)F)C2)cc1-c1cc(OCCO)nc(N2CCOCC2)c1` [Example 40, (3S,5R)-3-amino-N-[2-fluoro-5-[2-(2-hydroxyethoxy)-6-(morpholin-4-yl)pyridin-4-yl]-4-methylphenyl]-5-(trifluoromethyl)piperidine-1-carboxamide], the IC50 was under 10 nM.
The value for `Cc1ccc(NC(=O)N2CCC(CC(F)(F)F)C2)cc1-c1cc(O[C@@H]2CCN(C)C2)nc(N2CCOCC2)c1` (stereo partly drawn) [Example 202, N-(4-methyl-3-(2-(((R)-1-methylpyrrolidin-3-yl)oxy)-6-morpholinopyridin-4-yl)phenyl)-3-(2,2,2-trifluoroethyl)pyrrolidine-1-carboxamide] was under 10 nM; that for `CC(C#N)=C1CCN(C(=O)Nc2cc(-c3cc(OCCO)nc(N4CCOCC4)c3)c(C)cc2F)C1` (stereo in doubt) [Example 97, (3E)-3-(1-cyanoethylidene)-N-[2-fluoro-5-[2-(2-hydroxyethoxy)-6-(morpholin-4-yl)pyridin-4-yl]-4-methylphenyl]pyrrolidine-1-carboxamide] was under 10 nM; that for `Cc1cc(F)c(NC(=O)N2CCC(F)(F)C(C(F)(F)F)C2)cc1-c1cc(OCCO)nc(N2CCOCC2)c1` (centres unmarked) [Example 104, 4,4-difluoro-N-[2-fluoro-5-[2-(2-hydroxyethoxy)-6-(morpholin-4-yl)pyridin-4-yl]-4-methylphenyl]-3-(trifluoromethyl)piperidine-1-carboxamide] was under 10 nM.
The value for `Cc1ccc(NC(=O)N2CC[C@@H](CC(F)(F)F)C2)cc1-c1cc(OCCS(C)(=N)=O)nc(N2CCOCC2)c1` (stereo partly drawn) [Example 221, (3S)-N-[3-(2-[2-[imino(methyl)oxo-λ^6-sulfanyl]ethoxy]-6-(morpholin-4-yl)pyridin-4-yl)-4-methylphenyl]-3-(2,2,2-trifluoroethyl)pyrrolidine-1-carboxamide] was under 10 nM; that for `Cc1ccc(NC(=O)Nc2cnn(C(F)(F)F)c2)cc1-c1cnc(OC2CCOCC2)c(N2CCOCC2)c1` [Example 130, 1-[4-methyl-3-[5-(morpholin-4-yl)-6-(oxan-4-yloxy)pyridin-3-yl]phenyl]-3-[1-(trifluoromethyl)pyrazol-4-yl]urea] was under 10 nM.
The value for `Cc1cc(F)c(NC(=O)N2CCCC3C2C3C(F)(F)F)cc1-c1cc(OCCO)nc(N2CCOCC2)c1` (single isomer, unassigned) [Example 111, N-[2-fluoro-5-[2-(2-hydroxyethoxy)-6-(morpholin-4-yl)pyridin-4-yl]-4-methylphenyl]-7-(trifluoromethyl)-2-aabicyclo[4.1.0]heptane-2-carboxamide] was under 10 nM.
`Cc1ccc(NC(=O)N2CC[C@H](SC(F)(F)F)C2)cc1-c1cnc(OC2CCOCC2)c(N2CCOCC2)c1` [Example 132, (3S)-N-[4-methyl-3-[5-(morpholin-4-yl)-6-(oxan-4-yloxy)pyridin-3-yl]phenyl]-3-[(trifluoromethyl)sulfanyl]pyrrolidine-1-carboxamide]: the IC50 is under 10 nM.
As for `Cc1ccc(NC(=O)N2CC[C@H](OC(F)(F)F)C2)cc1-c1cc(OC[C@@H](C)O)nc(N2CCOCC2)c1` [Example 155, (3S)-N-(3-[2-[(2R)-2-hydroxypropoxy]-6-(morpholin-4-yl)pyridin-4-yl]-4-methylphenyl)-3-(trifluoromethoxy)pyrrolidine-1-carboxamide], the figure is under 10 nM; as for `Cc1ccc(NC(=O)N2CC[C@@H](CC(F)(F)F)C2)cc1-c1cc(OC2CC(O)C2)nc(N2CCOCC2)c1` (stereo partly drawn) [Example 206, (3S)-N-[3-[2-(3-hydroxycyclobutoxy)-6-(morpholin-4-yl)pyridin-4-yl]-4-methylphenyl]-3-(2,2,2-trifluoroethyl)pyrrolidine-1-carboxamide], under 10 nM; as for `Cc1ccc(NC(=O)Nc2cnn(CC(F)(F)F)c2)cc1-c1cc(OCCO)nc(N2CCOCC2)c1` [Example 135, 1-[3-[2-(2-hydroxyethoxy)-6-(morpholin-4-yl)pyridin-4-yl]-4-methylphenyl]-3-[1-(2,2,2-trifluoroethyl)pyrazol-4-yl]urea], under 10 nM.
Regarding `Cc1cc(F)c(NC(=O)N2CCO[C@@H](C(C)(F)F)C2)cc1-c1cc(OCCO)nc(N2CCOCC2)c1` (single isomer, unassigned) [Example 58], the IC50 was under 10 nM.
`Cc1cc(F)c(NC(=O)N2CC[C@@]3(C2)CC(F)(F)C3(F)F)cc1-c1cc(OCCO)nc(N2CCOCC2)c1` (single isomer, unassigned) [Example 106]: the half-maximal inhibitory concentration (IC50) is under 10 nM.
As for `Cc1ccc(NC(=O)N2CCC(C3CC3(F)F)C2)cc1-c1cc(OCCO)nc(N2CCOCC2)c1` (centres unmarked) [Example 114, 3-(2,2-difluorocyclopropyl)-N-[3-[2-(2-hydroxyethoxy)-6-(morpholin-4-yl)pyridin-4-yl]-4-methylphenyl]pyrrolidine-1-carboxamide], the figure is under 10 nM; as for `Cc1cc(F)c(NC(=O)N2CC[C@H](CC(F)(F)F)C2)cc1-c1cc(OCCO)nc(N2CCOCC2)c1` [Example 36, (3R)-N-[2-fluoro-5-[2-(2-hydroxyethoxy)-6-(morpholin-4-yl)pyridin-4-yl]-4-methylphenyl]-3-(2,2,2-trifluoroethyl)pyrrolidine-1-carboxamide], under 10 nM.
The value for `Cc1ccc(NC(=O)N2CC[C@@H](CC(F)(F)F)C2)cc1-c1cc(O[C@H](C)[C@@H](C)O)nc(N2CCOCC2)c1` [Example 233, (S)-N-(3-(2-(((2R,3R)-3-hydroxybutan-2-yl)oxy)-6-morpholinopyridin-4-yl)-4-methylphenyl)-3-(2,2,2-trifluoroethyl)pyrrolidine-1-carboxamide] was under 10 nM; that for `Cc1ccc(NC(=O)n2ccc(C(=O)C(F)(F)F)c2)cc1-c1cc(OCCO)nc(N2CCOCC2)c1` [Example 147, N-[3-[2-(2-hydroxyethoxy)-6-(morpholin-4-yl)pyridin-4-yl]-4-methylphenyl]-3-(2,2,2-trifluoroacetyl)pyrrole-1-carboxamide] was 1000 to 10000 nM; that for `Cc1cc(F)c(NC(=O)N2CCCC3(COC3)C2)cc1-c1cc(OCCO)nc(N2CCOCC2)c1` [Example 27, N-[2-fluoro-5-[2-(2-hydroxyethoxy)-6-(morpholin-4-yl)pyridin-4-yl]-4-methylphenyl]-2-oxa-6-azaspiro[3.5]nonane-6-carboxamide] was 10 to 100 nM.
The value for `Cc1cc(F)c(NC(=O)N2CC(C(F)F)C2)cc1-c1cc(OCCO)nc(N2CCOCC2)c1` [Example 21, 3-(difluoromethyl)-N-[2-fluoro-5-[2-(2-hydroxyethoxy)-6-(morpholin-4-yl)pyridin-4-yl]-4-methylphenyl]azetidine-1-carboxamide] was 10 to 100 nM; that for `Cc1ccc(NC(=O)N2CCC(CC(F)(F)F)C2)cc1-c1cc(OCCCO)nc(N2CCOCC2)c1` (centres unmarked) [Example 189, N-(3-(2-(3-hydroxypropoxy)-6-morpholinopyridin-4-yl)-4-methylphenyl)-3-(2,2,2-trifluoroethyl)pyrrolidine-1-carboxamide] was under 10 nM.
As for `Cc1cc(F)c(NC(=O)N2CCC3C2C3C(F)(F)F)cc1-c1cc(OCCO)nc(N2CCOCC2)c1` (single isomer, unassigned) [Example 69, N-[2-fluoro-5-[2-(2-hydroxyethoxy)-6-(morpholin-4-yl)pyridin-4-yl]-4-methylphenyl]-6-(trifluoromethyl)-2-azabicyclo[3.1.0]hexane-2-carboxamide], the half-inhibitory concentration (IC50) is under 10 nM.
The value for `Cc1cc(F)c(NC(=O)N2CCC(C(F)(F)C(F)(F)F)C2)cc1-c1cc(OCCO)nc(N2CCOCC2)c1` (single isomer, unassigned) [Example 85] was under 10 nM; that for `Cc1ccc(NC(=O)N2CC[C@@H](OC(F)(F)F)C2)cc1-c1cc(OCCO)nc(N2CCOCC2)c1` (single isomer, unassigned) [Example 124] was under 10 nM.
As for `Cc1ccc(NC(=O)N2CC[C@@H](SC(F)(F)F)C2)cc1-c1cc(OCCO)nc(N2CCOCC2)c1` (single isomer, unassigned) [Example 117], the figure is under 10 nM; as for `Cc1cc(F)c(NC(=O)N2CCC3(CCCC3)C2)cc1-c1cc(OCCO)nc(N2CCOCC2)c1` [Example 73, N-(2-fluoro-5-(2-(2-hydroxyethoxy)-6-morpholinopyridin-4-yl)-4-methylphenyl)-2-azaspiro[4.4]nonane-2-carboxamide], under 10 nM; as for `Cc1ccc(NC(=O)N2CC[C@@H](CC(F)(F)F)C2)cc1-c1cc(O[C@H]2CC[C@H](O)C2)nc(N2CCOCC2)c1` [Example 207, (3S)-N-[3-(2-[[(1S,3S)-3-hydroxycyclopentyl]oxy]-6-(morpholin-4-yl)pyridin-4-yl)-4-methylphenyl]-3-(2,2,2-trifluoroethyl)pyrrolidine-1-carboxamide], under 10 nM.
On to `Cc1cc(F)c(NC(=O)N2CCC3(CCC3(F)F)C2)cc1-c1cc(OCCO)nc(N2CCOCC2)c1` (single isomer, unassigned) [Example 90, 1,1-difluoro-N-[2-fluoro-5-[2-(2-hydroxyethoxy)-6-(morpholin-4-yl)pyridin-4-yl]-4-methylphenyl]-6-azaspiro[3.4]octane-6-carboxamide], for which the half-maximal inhibitory concentration (IC50) is under 10 nM.
The value for `Cc1ccc(NC(=O)N2CC[C@@H](CC(F)(F)F)C2)cc1-c1cncc(N2CCOCC2)c1` [Example 226, (3S)-N-[4-methyl-3-[5-(morpholin-4-yl)pyridin-3-yl]phenyl]-3-(2,2,2-trifluoroethyl)pyrrolidine-1-carboxamide] was under 10 nM.
As for `Cc1cc(F)c(NC(=O)N2CCC(C(C)(C)C#N)C2)cc1-c1cc(OCCO)nc(N2CCOCC2)c1` (centres unmarked) [Example 99, 3-(1-cyano-1-methylethyl)-N-[2-fluoro-5-[2-(2-hydroxyethoxy)-6-(morpholin-4-yl)pyridin-4-yl]-4-methylphenyl]pyrrolidine-1-carboxamide], the figure is under 10 nM.

The IC50 is the concentration that gives 50% inhibition.
